Reference: a melting point compilation (Tetko et al.; mined from patent text by program, amines drawn as free bases though some values may be those of a salt)

SMILES	melting point
Nc1ccc(N2C(=O)CNC2=O)cc1	230 to 231 °C
CN(N)C1=NOCc2ccc(Cl)cc21	124 to 125 °C
CC(C)(C)OC(=O)CC[C@H](NC(=O)c1ccc(C=Cc2cnc3nc(N)nc(N)c3c2)cc1)C(=O)OC(C)(C)C	> 300 °C
CC(C)(O)C1CCN(Cc2ccc(COc3cccc4c3CN(C3CCC(=O)NC3=O)C4=O)cc2)CC1 (configuration not stated)	160 to 162 °C
COC(=O)C=NOCc1c(F)cccc1COc1ccccc1C	108 °C
COc1ccc(CCc2nc(C(F)(F)F)c[nH]2)cc1	146 to 148 °C
C=CCOC(=O)c1cc(C23CC4CC(CC(C4)C2)C3)c(OC)cc1F	101 to 102 °C
COc1ccc(C(=O)Nc2ccccc2)cc1NS(=O)(=O)c1ccc(Cl)c(Cl)c1	191 to 193 °C
O=C(O)c1cc([N+](=O)[O-])c(-c2ccncc2)[nH]c1=O	> 300 °C
O=c1[nH]c2ccc(C(F)(F)F)cc2c2c1c(=O)oc1ccc(Cl)cc12	> 250 °C
CNC(=S)NCCSCc1cncs1	86 to 88 °C
Cc1ccc(S(=O)(=O)NC(C)P(=O)(Oc2ccccc2)c2ccccc2)cc1 (configuration not stated)	178 to 181 °C
O=C(NN=Cc1cccc2ccccc12)c1cc2ccccc2cc1O	214 °C
COc1c(N2CCNCC2)c(F)cc2c(=O)c(C(=O)O)c3n(c12)C(C)S3 (configuration not stated)	278 to 280 °C
CCCCSc1cnc2c(c1)CCC(c1ccc(Cl)c(Cl)c1)O2 (configuration not stated)	59.5 to 61 °C
Clc1ccc2sc(Cl)nc2c1	70 °C
Cn1cc(C(N)=O)c(-c2ccc([N+](=O)[O-])o2)n1	251 to 252 °C
N#CCCCCCC(=NO)c1ccc(Cl)cc1	58 to 59 °C
CC(C)Cc1nc2sc3c(NCc4cccnc4)ncnc3c2c2c1COC(C)(C)C2	244 to 245 °C
c1ccc(CCN2CCC(CCc3cc(-c4ccccc4)nc4ccccc34)CC2)cc1	80 °C
CC(C)C1(C)NC(c2ccc(C=O)cn2)=NC1=O (configuration not stated)	106 to 108 °C
Oc1ccc(CCc2ccc(O)cc2)cc1	199 to 200 °C
c1ccc(Nc2nnc(-c3cccnc3)s2)cc1	252 to 255 °C
CN(C)C(=O)n1oc(CCl)cc1=O	89 to 90 °C
O=S(=O)(c1ccccc1)C(F)(F)C(O)c1ccco1 (configuration not stated)	72 to 74 °C
Cc1nc2nc3cc(Cl)ccc3nc2[nH]1	> 300 °C

SMILES	melting point
COc1cc(COc2cc(N)c(Cl)cc2C(=O)CCCCN2CCCCC2)cc(OC)c1	128 to 130 °C
COc1ccc(-n2c(=O)c3c(N4CCN(C)CC4)cc(Cl)cc3n(Cc3ccccc3)c2=O)cc1	155 to 158 °C
Cc1oc(-c2ccccc2)nc1COc1ccc(CON=C(CCC(N)=O)c2ccccc2)cc1	110 to 112 °C
Cn1c(C#N)ccc1-c1cc(F)c2c(c1)C1(CC1)C(=O)N2	228 to 231 °C
CC(C)c1cccc(NC(=O)[C@H](Br)C(C)C)c1O	108 to 109 °C
COc1ccc(-c2cc(F)c(F)cc2-c2ccc(S(N)(=O)=O)cc2)cc1C	120 to 122 °C
COc1cc(OC(C)(C)C(=O)O)c(C=CC(=O)c2ccc(C(=O)O)cc2)cc1-c1cccs1	223 to 225 °C
O=C(OCCOc1ccccc1)c1sc(Cl)nc1C(F)(F)F	70 to 72 °C
CCOC(=O)c1ccc(NCCC(c2ccc(Cl)cc2)c2ccc(Cl)cc2)cc1	112 to 117 °C
O=c1ncc(I)cn1COc1ccc(Cl)cc1	216 °C
CC(CCCC(C)(C)O)C1CCC2C3CCC4(O)CC(O)CCC4(C)C3CCC12C (configuration not stated)	202 to 204 °C
CCc1c(Cl)c2ccccn2c1C(=O)c1ccc(O)c(Br)c1	204 °C
O=C(COc1ccccc1)N[C@@H](Cc1ccccc1)C(=O)CSCc1ccsc1	80 to 81 °C
CC(Cl)Cn1cc(-c2ccccc2)c2ccccc2c1=O (configuration not stated)	141 °C
CCS(=O)CC(=O)Nc1c(C)cccc1C (configuration not stated)	114 to 115 °C
NC(=O)[C@@H]1[C@H](Nc2c(Br)cnc3[nH]c(-c4cccc(N5CCOCC5)c4)nc23)[C@H]2C=C[C@@H]1C2	232 to 234 °C
CC(=O)Nc1cccc(CCCCC(=O)O)c1	137 to 138 °C
Nc1nccc(-c2c[nH]c3nccc(Cl)c23)n1	> 210 °C
NS(=O)(=O)c1ccc(S(=O)(=O)c2ccc(OC(=O)c3cccnc3)cc2)s1	200 to 201 °C
CN1CCN(c2ccc(O)c3c2C[C@H](N)CC3)CC1	238 to 239 °C
CN(C)Cc1ccc(Cc2cnc(N[N+](=O)[O-])[nH]c2=O)cc1	214 to 217 °C
C=CC(CC(O)C(CC1CCCCC1)NC(=O)C(Cc1c[nH]cn1)NC(=O)C(Cc1ccccc1)NC(=O)OC(C)(C)C)C(C)C (configuration not stated)	161 °C
Fc1cc(Cl)c(Br)c(Cl)c1	83 °C
COc1ccc(N2CCOCC2)c2sc(C(=O)NCC(=O)c3ccsc3)nc12	170 °C
CCOC(=O)c1ccc(F)c([N+](=O)[O-])c1	50 °C
Oc1ccc(Nc2n[nH]c3ncnc(Nc4cccc(Cl)c4)c23)cc1	> 260 °C

SMILES	melting point
CN(C)C=Nc1snc(C#N)c1C#N	173 °C
COc1ccc(S(=O)(=O)Nc2ccccc2NC(=O)c2ccc(OCc3ccccc3)cc2)cc1	148 to 149 °C
CC1CC(C)N(CCCNC(=O)CN2CCCC2=O)C(C)(C)C1 (configuration not stated)	85 to 87 °C
O=C(NCCO)c1ccc(CCN2CCN(Cc3ccccc3Cl)CC2)cc1	121 to 122 °C
CCCCN1CCN(c2nsc3nc4ccccc4n23)CC1	121 to 122 °C
O[C@]1(c2ccccc2)CCS[C@H]2CN(Cc3ccccc3)C[C@H]21 (racemic)	137 °C
COC(=O)C1=C(C)NC(C)=C(C(=O)OC(C)(C)C)C1c1cccc(N)c1 (configuration not stated)	85 to 90 °C
NS(=O)(=O)Oc1ccccc1F	63 to 64 °C
Cc1ccc(-c2ccc(C(=O)c3ccccc3)cc2)cc1	124 to 125 °C
C#Cc1cccc(C(=O)OCC)c1	36 to 38 °C
CCOC(=O)CC(NC(=O)c1ccc(Cl)cc1)C(=O)C(C)C (configuration not stated)	42 to 44 °C
Cc1cc(Nc2ccnc(Nc3ccc(S(=O)(=O)N(Cc4ccco4)C4CCN(C)CC4)cc3)n2)ccc1F	184 °C
Cc1noc(NS(=O)(=O)c2ccc(C(F)(F)F)cc2)c1Br	155 to 158 °C
NC(=O)c1sc2nccc(N3CCCC(c4ccccc4)C3)c2c1N (configuration not stated)	267 to 269 °C
CCCCCCCCCCC#Cc1csc(CC(N)CO)c1 (configuration not stated)	85 to 135 °C
Cn1c(=O)c2c(ncn2CC(N)=NO)n(C)c1=O	224 °C
Nc1ncnc2c1ncn2C1OC(C(O)C(=O)OCc2ccccc2)C(O)C1O (configuration not stated)	144 to 145 °C
CC(C)(C)OC(=O)Nc1ccc2ccc(C#N)cc2c1Br	139 to 141 °C
CC(C)Cn1cc(C(=O)O)c2ccc(Cl)cc21	205 to 206 °C
CS(=O)(=O)c1cccc(Cn2ccc(OCc3ccc(F)cc3F)c(Cl)c2=O)c1	155 to 157 °C
CC1(C(=O)NNc2c(Cl)cc(C(F)(F)F)cc2Cl)CC1(Cl)Cl (configuration not stated)	174 to 175 °C
Cc1cc(-c2ccccc2)n2nc(C(F)(F)F)c(C#N)c2n1	143 to 148 °C
Cc1cc(C#CC=O)nc(Oc2cc(C(F)(F)F)nn2C)c1	73 °C
CN(C(=O)c1ccccc1)C1CCC(=O)CC1	126 to 128 °C
COc1ccccc1N1CCN(S(=O)(=O)c2ccc([N+](=O)[O-])cc2)CC1	202 to 204 °C
CON=C(C1=NOCCO1)c1ccccc1COc1ccn(-c2ccc(Cl)cc2)n1	56 to 59 °C

SMILES	melting point
CCCCc1cc(OCc2ccc(C#N)cc2)c2ccccc2n1	74 °C
CC(C)(C)OC(=O)N1CCN(CCC(N)=O)CC1	96 to 98 °C
C[C@@H](COC(F)(F)C(F)F)[C@](O)(Cn1cncn1)c1ccc(F)cc1F	148 °C
OC(CCl)(c1ccccc1)c1ccc(-c2ccccc2)cc1 (configuration not stated)	94 °C
COCCOc1ccc(CCNC(=O)OCc2ccccc2)c(Oc2ncc(C(F)(F)F)cc2Cl)c1	102 to 103 °C
Cc1nc2cc(/C=C/C(=O)NO)ccc2c(=O)n1CCc1ccccc1	227 to 229 °C
COC(=O)c1ccc(-c2coc(-c3ccc4c(c3)C(C)(C)CCC4(C)C)c2)cc1	109 to 111 °C
CC(C)N1CCN(CCN2CCC(c3cn(-c4ccc(F)cc4)c4cc(Cl)ccc34)CC2)C1=O	134 °C
C[C@@H](O)[C@H](NC(=O)c1ccc(F)c(Br)c1)C(=O)NO	152 to 153 °C
O=C1c2ccccc2C(=O)N1Cc1cccc(CN2C(=O)c3ccccc3C2=O)n1	> 250 °C
CCN(c1cccc(C(=O)Nc2cc(NC(=O)c3cccc(N4CCOCC4)c3)ccc2C)c1)S(C)(=O)=O	192 to 193 °C
CCCCc1nc2cccc(C(=O)O)c2n1Cc1ccc(-c2ccccc2-c2nc(=O)o[nH]2)cc1	165 to 167 °C
CCOC1CC2(C)C(CCC3C4CC(C)C(C(C)=O)C4(C)CC(=O)C32)CC1O (configuration not stated)	178 to 179 °C
CN(c1cccc2cc(C3=NCCS3)[nH]c12)S(=O)(=O)c1cccs1	192 to 193 °C
Cn1ncnc1COc1nc2c(cc1C1CCC1)nnn2-c1c(F)cccc1F	140 to 144 °C
CS(=O)(=O)N1CCC(C(=O)Nc2ccccc2Oc2ccc(Cl)cc2Cl)CC1	150 to 151 °C
Cc1nnc(-c2ccc3occ(-c4cn[nH]c4)c3c2)o1	215 to 216 °C
COc1cc2c(cc1OCc1ccccc1)CCC(=O)N2Cc1cc(OC)c(OC)c(OC)c1	129 to 130 °C
CCCCCCCCOc1ccc(C(=O)COC(C)=O)cc1	44 to 45 °C
CCCCc1nc2cc(-c3ccccc3)cc(C(=O)O)c2n1Cc1ccccc1Cl	236 to 238 °C
O=C(CCN1CCN(c2ccc3ccccc3n2)CC1)c1csc2ccccc12	92 to 96 °C
Cc1cnc(CCCCNc2ncc(Cc3ccc(C)nc3)c(=O)[nH]2)c(Br)c1	148 to 151 °C
C=C(C)/C=C(\NC(C)=O)C1(c2ccc(Cl)cc2)CCC1	120 °C
Nc1nc2c(sc(=O)n2C2CC(O)C(CO)O2)c(=O)[nH]1 (configuration not stated)	> 170 °C
